In patent US10441744B2, “Flushable catheter affixed to a wash line activated by a microfluidic pressure switch” (priority 2013, dated 2019):

Tested on: cells attached to plastic surface
Test: detachment and removal of cells from plastic surface by cleaning solutions
Format: cell-based
Description: The first step with solution A: Solution A contains proteases. Proteases can be used to digest proteins attached to plastic surface. For example, trypsin can be used to release a cell layer from plastic dishes. An application of trypsin (pre-warmed at 37° C.) can lead the single cell layer to detach from the plastic bottom in a few minutes. When incubated at 30° C. (may be similar to the temperature of the part of catheters out of body), trypsin may detach heavy, multilayer cells from plastic surface in 30 min. Biofilm often contains multi-layers of cells can be digested and detach the layers of cells from plastic surface 30 min after trypsin incubation at 37° C.
The second step with solution B: While most of the cells may be detached by protease treatment (such as trypsin), a few cells may remain on the plastic surface, particularly when the incubation temperature is not at optimal digestive temperature (such as 37° C. for trypsin) as may happen for the part of catheters out of patients. Solution B may be used to continue the treatment for two purposes. Solution B contains high ion concentration that may reduce attachment of cell to plastic surface at room temperature. High ion concentration such as addition of 0.45M NaCl may also further reduce proteins binding to the surface (Ouyang et al., 1997). The second purpose is to deactivate remaining trypsin as a buffer without calcium and magnesium. […] Although it is not necessary to understand the mechanism of action of the current invention, it is believed that a higher concentration of saline solution (0.45M NaCl or above), similar to elution buffer for ion chromatography, helps to clean cells and/or proteins still attached to plastic due to charge of the ions.
The third step with solution C: After most of the bacterial and cells detach from plastic and wash away, 70% ethanol may be applied to kill possible bacterial remains and/or denature proteins still attached on the plastic surface. […]

trypsin
time to detach heavy, multilayer cells from plastic surface (incubated at 30° C.): 30 min | time to digest and detach layers of cells (biofilm multi-layers) from plastic surface (trypsin incubation at 37° C.): 30 min | time for single cell layer to detach from the plastic bottom (trypsin pre-warmed at 37° C.): a few minutes
